Test results taken from ChEMBL document CHEMBL3352426, “A natural phenylpropionate derivative from Mirabilis himalaica inhibits cell proliferation and induces apoptosis in HepG2 cells” (Bioorg Med Chem Lett, 2014).
Values after ≈ are worked out from the molar mass of the structure shown. Active and inactive are the calls of the source. The calls are words filed in the database; no cut-off is given here.

Columns and labels:
HepG2 [1] = assay: Induction of apoptosis in human HepG2 cells assessed as assessed as accumulation at G2/M phase after 48 hrs by propidium iodide staining-based flow cytometric analysis (reference value: 10.4%); type: functional
HepG2 [2] = assay: Antitumor activity against human HepG2 cells injected in ip dosed mouse assessed as reduction in tumor size treated for 13 days; type: functional
HepG2 [3] = assay: Induction of apoptosis in human HepG2 cells transfected with pBabe-puro assessed as apoptotic cell accumulation after 48 hrs by annexin V/propidium iodide staining-based flow cytometric analysis; type: functional
HepG2 [4] = assay: Cytotoxicity against human HepG2 cells assessed as inhibition of cell proliferation at 20 ug/ml by MTT assay; type: functional
HepG2 [5] = assay: Induction of apoptosis in human HepG2 cells assessed as increase in Bax level after 48 hrs by Western blot analysis; type: functional, cell-based
HepG2 [6] = assay: Increase in p53 expression in human HepG2 cells after 48 hrs by Western blot analysis; type: functional, cell-based
HepG2 [7] = assay: Induction of alteration in mitochondrial membrane potential in human HepG2 cells assessed as decrease Rh-123 fluorescence at 10 ug/ml after 48 hrs by flow cytometric analysis; type: functional; conditions: HepG2, 48 h
HepG2 [8] = assay: Cytotoxicity against human HepG2 cells assessed as decrease in positive staining after 1 hr by BrdU immunofluorescence assay relative to untreated control; type: functional
HepG2 [9] = assay: Effect on Cyclin A expression in human HepG2 cells after 48 hrs by Western blot analysis; type: functional, cell-based
HepG2 [10] = assay: Effect on CDK6 expression in human HepG2 cells after 48 hrs by Western blot analysis; type: functional, cell-based
HepG2 [11] = assay: Induction of apoptosis in human HepG2 cells transfected with p53 shRNA assessed as apoptotic cell accumulation after 48 hrs by annexin V/propidium iodide staining-based flow cytometric analysis; type: functional
HepG2 [12] = assay: Induction of alteration in mitochondrial membrane potential in human HepG2 cells assessed as decrease Rh-123 fluorescence at 20 ug/ml after 48 hrs by flow cytometric analysis; type: functional; conditions: HepG2, 48 h
HepG2 [13] = assay: Cytotoxicity against human HepG2 cells assessed as inhibition of cell proliferation at 2.5 to 40 ug/ml by CCK8 assay; type: functional, cell-based; conditions: TDE = time-dependent effect
HepG2 [14] = assay: Increase in p21 expression in human HepG2 cells after 48 hrs by Western blot analysis; type: functional, cell-based
HepG2 [15] = assay: Effect on CDK2 expression in human HepG2 cells after 48 hrs by Western blot analysis; type: functional, cell-based
HepG2 [16] = assay: Induction of alteration in mitochondrial membrane potential in human HepG2 cells assessed as decrease Rh-123 fluorescence after 48 hrs by flow cytometric analysis; type: functional, cell-based
HepG2 [17] = assay: Effect on CDK4 expression in human HepG2 cells after 48 hrs by Western blot analysis; type: functional, cell-based
HepG2 [18] = assay: Cytotoxicity against human HepG2 cells assessed as inhibition of cell proliferation after 48 hrs by CCK8 assay; type: functional, cell-based
Mus musculus = assay: Toxicity in human HepG2 cells injected in ip dosed mouse assessed as change in body weight; type: organism-based; conditions: in vivo
[19] = Cytotoxicity against human L02 cells assessed as assessed as apoptotic cells after 48 hrs by annexin V/propidium iodide staining-based flow cytometric analysis; type: cell-based; conditions: l02, 48 h
HepG2 [20] = assay: Induction of alteration in mitochondrial membrane potential in human HepG2 cells assessed as decrease Rh-123 fluorescence at 5 ug/ml after 48 hrs by flow cytometric analysis; type: functional; conditions: HepG2, 48 h
HepG2 [21] = assay: Induction of apoptosis in human HepG2 cells assessed as assessed as increase in apoptotic cells after 48 hrs by annexin V/propidium iodide staining-based flow cytometric analysis; type: functional
HepG2 [22] = assay: Induction of apoptosis in human HepG2 cells transfected with pBabe-puro with Bcl2 assessed as apoptotic cell accumulation after 48 hrs by annexin V/propidium iodide staining-based flow cytometric analysis; type: functional
HepG2 [23] = assay: Induction of apoptosis in human HepG2 cells assessed as assessed as accumulation at S phase after 48 hrs by propidium iodide staining-based flow cytometric analysis (reference value: 18.9%); type: functional
HepG2 [24] = assay: Effect on Cyclin D1 expression in human HepG2 cells after 48 hrs by Western blot analysis; type: functional, cell-based
HepG2 [25] = assay: Induction of apoptosis in human HepG2 cells assessed as decrease in Bcl2 level after 48 hrs by Western blot analysis; type: functional, cell-based
HepG2 [26] = assay: Induction of apoptosis in human HepG2 cells assessed as caspase 3 activation after 48 hrs by Western blot analysis; type: functional, cell-based
HepG2 [27] = assay: Induction of apoptosis in human HepG2 cells assessed as assessed as accumulation at G0/G1 phase after 48 hrs by propidium iodide staining-based flow cytometric analysis (reference value: 70.8%); type: functional

Which Activity (HepG2 [1]) does the source give for COc1cc(OC(=O)/C=C/c2ccc(O)cc2OC)ccc1O here?
Its Activity is 11.4%.

And the “inhibition (INH)” value (HepG2 [2])?
Its value is 50%.

What about the Activity (HepG2 [3]) of the same compound?
Its Activity is 75.4%.

What about the inhibition at 20 µg/mL (HepG2 [4]) of the same compound?
Its inhibition at 20 µg/mL is 37%.

And the Activity (HepG2 [5])?
The Activity was “Active”.

And the Activity (HepG2 [6])?
Its Activity is “Active”.

And the inhibition at 10 µg/mL (HepG2 [7])?
Its inhibition at 10 µg/mL is 69.5%.

And the “inhibition (INH)” value (HepG2 [8])?
Its value is 40%.

What about the Activity (HepG2 [9]) of the same compound?
Its Activity is “inactive”.

And the Activity (HepG2 [10])?
The Activity was “inactive”.

What about the Activity (HepG2 [11]) of the same compound?
The Activity was 68.8%.

And the inhibition at 20 µg/mL (HepG2 [12])?
Its inhibition at 20 µg/mL is 84.9%.

What about the inhibition (HepG2 [13]) of the same compound?
Its inhibition is “tde”.

And the Activity (HepG2 [14])?
The Activity was “Active”.

And the Activity (HepG2 [15])?
Its Activity is “inactive”.

What about the inhibition (HepG2 [16]) of the same compound?
The inhibition was “Dose-dependent effect”.

What about the Activity (HepG2 [17]) of the same compound?
The Activity was “inactive”.

What about the inhibition (HepG2 [18]) of the same compound?
Its inhibition is “Dose-dependent effect”.

What about the IC50 (HepG2 [18]; HepG2, 48 h) of the same compound?
Its IC50 is 15.1 µg/mL (≈ 47.8 µM).

And the Activity (Mus musculus)?
The Activity was “Non-toxic”.

And the Activity [19]?
Its Activity is “Non-toxic”.

What about the inhibition at 5 µg/mL (HepG2 [20]) of the same compound?
The inhibition at 5 µg/mL was 37.1%.

What about the Activity (HepG2 [21]) of the same compound?
The Activity was 89.9%.

And the Activity (HepG2 [22])?
Its Activity is 26.9%.

What about the Activity (HepG2 [23]) of the same compound?
The Activity was 36%.

What about the Activity (HepG2 [24]) of the same compound?
Its Activity is “inactive”.

And the inhibition (HepG2 [25])?
The inhibition was “Active”.

And the Activity (HepG2 [26])?
The Activity was “Active”.

And the Activity (HepG2 [27])?
The Activity was 52.6%.
